The record followed here is patent publication US20240024317A1, “CANCER TREATMENT USING BOSENTAN IN COMBINATION WITH A CHECKPOINT INHIBITOR” (Materia Therapeutics Inc., priority 2020, published 2024).

In data set [1] the test system is orthotopic 4T1 breast tumors. The data set is described as follows: Pimonidazole hypoxia staining (hypoxic area fraction). In kind it is in vivo, mice. Particulars: 1 mg/kg; 4T1 (FIG. 2B). The method, then: Because reducing collagen I levels and tissue stiffness decompresses vessels, it was hypothesized that hypoxia, which is an indicator of decreased blood flow to the tumor, would be reduced with bosentan treatment. […] For the hypoxia studies, Mice bearing orthotopic E0771 or 4T1 breast tumors were injected (intraperitoneal) with 60 mg/kg of pimonidazole HCl at 2 hr prior to tumor removal. Prior to tumors excision, animals were anesthetized via Avertin (200 mg/kg, intraperitoneal). Primary tumors were then excised, fixed in 4% PFA, embedded in OCT and processed accordingly for IHC. Hypoxic regions were detected using the mouse anti-pimonidazole RED 549 conjugate antibody (HP7-100Kit, 1:100). Hypoxic area fraction across different treatment groups was normalized to DAPI staining. For fluorescent immunohistochemistry, tumors were removed, washed twice in 1× PBS for 10 min and incubated with 4% PFA overnight at 4° C. The fixative was aspirated, and samples washed twice in 1× PBS for 10 min. Fixed tissues were embedded in optimal cutting temperature compound in cryomolds (Tissue-Tek) and frozen completely at −20° C. […] CD31 signal was detected with Alexa Fluor-488 anti-rabbit IgG (H+L) and CD3 signal with Alexa Fluor-647 anti-rat IgG (H+L) secondary antibodies. Tumor associated T cell and vessel content was determined by the CD31 and CD3 area fraction normalized to DAPI staining. […]

The nature of data set [2]: Mouse body weight under bosentan monotherapy. Particulars: bosentan monotherapy at any dose. In kind it is in vivo, mice. On the procedure:
Mice bearing syngeneic, orthotopic triple negative breast cancer (TNBC) were treated with a range of sub-therapeutic doses of bosentan, from 0.2 mg/kg to 10 mg/kg of body weight. Orthotopic models for murine mammary tumors were generated by implantation of 5×10^4 4T1 or E0771 cancer cells in 40 μl of serum-free medium into the third mammary fat pad of 6-8-week-old BALB/c and C57BL/6 female mice, respectively. 4T1 (ATCC® CRL-2539TH) and E0771 (94A001, CH3 BioSystems) mouse breast adenocarcinoma cell lines were purchased form ATCC and CH3 BioSystems, respectively. The cells were maintained at 37° C./5% CO2 in Roswell Park Memorial Institute medium (RPMI-1640, LM-R1637, Biosera) supplemented with 10% fetal bovine serum (FBS, FB-1001H, biosera) and 1% antibiotics (A5955, Sigma). Bosentan (bosentan Hydrate (S3051, Selleckchem) was dissolved in ddH2O containing 2% DMSO (GK2245, Glentham Life Science), 30% PEG300 (S6704, Selleckchem) and 2% Tween 80 (S6702, Selleckchem)) 1 mg/kg, 5 mg/kg, 10 mg/kg or equal volume of diluent (control group) was administered by intraperitoneal injection (i.p.) once a day for 10 days, starting from once the tumor volumes reached an average size of 100 mm^3. Tumors were excised when they reached an average size of 500 mm^3. Tissue stiffness was then measured non-invasively and longitudinally using ultrasound elastography. […]

Take `COc1ccccc1Oc1c(NS(=O)(=O)c2ccc(C(C)(C)C)cc2)nc(-c2ncccn2)nc1OCCO` [bosentan, 4-tert-butyl-N-[6-(2-hydroxy-ethoxy)-5-(2-methoxy-phenoxy)-2-(pyrimidin-2-yl)pyrimidin-4-yl] benzenesulfonamide]: the “hypoxia (hypoxic area fraction)” value in data set [1] is recorded as “reduced hypoxia”. Moreover, the mouse body weight entry in data set [2] is reported as “did not affect”.
